What was measured:
[1] = target: T1, BceN (GDP-D-mannose 4,6-dehydratase) (Burkholderia cenocepacia, UniProt B4EFL2); assay: 1H NMR enzyme kinetics with purified protein (substrate turnover and substrate inhibition), […]°C, pH […]; assay type: biochemical
T1 construct: gene gca; full-length, C-terminally 6×His-tagged BceN, tetramer

[2] = target: 6×His-tagged BceN protein of Burkholderia cenocepacia J2315 (GDP-D-mannose 4,6-dehydratase) (Burkholderia cenocepacia J2315); assay: native gel or EMSA; discontinuous native PAGE, 8% polyacrylamide, 200 mM Tris-Cl pH 8.8, 4°C, 100 V, 2 h; 6 µg purified 6×His-tagged BceN; aliquot with GMD activity; mass standards catalase, aldolase, BSA, ovalbumin

Nc1nc2c(ncn2[C@@H]2O[C@H](COP(=O)(O)OP(=O)(O)O[C@H]3O[C@H](CO)[C@@H](O)[C@H](O)[C@@H]3O)[C@@H](O)[C@H]2O)c(=O)[nH]1 [A, GDP-D-mannose]
Ki [1]: 2910 ± 350 µM

6×His-tagged BceN protein of Burkholderia cenocepacia J2315 (GDP-D-mannose 4,6-dehydratase) (enzyme)
stoichiometry N [2]: 4
